Laboratory results from patent publication US20220227760A1, “COMPOUNDS AND COMPOSITIONS FOR TREATING CONDITIONS ASSOCIATED WITH STING ACTIVITY” (IFM Due, Inc., priority 2019, published 2022).

Molecular target: T1, Human STING (Homo sapiens, UniProt Q86WV6, G230A/H232R/R293Q/R71H)
T1 construct: host or cells: THP1-Dual KO-IFNAR2 cells
Assay: STING reporter assay (luciferase) in THP1-Dual KO-IFNAR2 cells stimulated with 2′3′cGAMP
Assay type: cell-based
Details: 15 μM 2′3′cGAMP, 24 h
Experimental: STING pathway activation by the compounds described herein is measured using THP1 Dual™ cells (KO-IFNAR2).
THP1-Dual™ KO-IFNAR2 Cells (obtained from invivogen) are maintained in RPMI, 10% FCS, 5 ml P/S, 2 mM L-glut, 10 mM Hepes, and 1 mM sodium pyruvate. Compounds are spotted in empty 384 well tissue culture plates (Greiner 781182) by Echo for a final concentration of 0.0017-100 μM. Cells are plated into the TC plates at 40 μL per well, 2×10E6 cells/mL. For activation with STING ligand, 2′3′cGAMP (MW 718.38, obtained from Invivogen), is prepared in Optimem media.
The following solutions are prepared for each 1×384 plate: • Solution A: 2 mL Optimem with one of the following stimuli: • 60 uL of 10 mM 2′3′cGAMP ->150 μM stock • Solution B: 2 mL Optimem with 60 μL Lipofectamine 2000->Incubate 5 min at RT
2 mL of solution A and 2 ml Solution B is mixed and incubated for 20 min at room temperature (RT). 20 uL of transfection solution (A+B) is added on top of the plated cells, with a final 2′3′cGAMP concentration of 15 μM. The plates are then centrifuged immediately at 340 g for 1 minute, after which they are incubated at 37° C., 5% CO2, >98% humidity for 24 h. Luciferase reporter activity is then measured. EC50 values were calculated by using standard methods known in the art.
Luciferase reporter assay: 10 μL of supernatant from the assay is transferred to white 384-plate with flat bottom and squared wells. one pouch of QUANTI-Luc™ Plus is dissolved in 25 mL of water. 100 μL of QLC Stabilizer per 25 mL of QUANTI-Luc™ Plus solution was added. 50 μL of QUANTI-Luc™ Plus/QLC solution per well is then added. Luminescence is measured on a Platereader (e.g., Spectramax I3X (Molecular Devices GF3637001)).
Luciferase reporter activity is then measured. EC50 values are calculated by using standard methods known in the art.

T1 sequence (Q86WV6 whole entry R71H/G230A/H232R/R293Q): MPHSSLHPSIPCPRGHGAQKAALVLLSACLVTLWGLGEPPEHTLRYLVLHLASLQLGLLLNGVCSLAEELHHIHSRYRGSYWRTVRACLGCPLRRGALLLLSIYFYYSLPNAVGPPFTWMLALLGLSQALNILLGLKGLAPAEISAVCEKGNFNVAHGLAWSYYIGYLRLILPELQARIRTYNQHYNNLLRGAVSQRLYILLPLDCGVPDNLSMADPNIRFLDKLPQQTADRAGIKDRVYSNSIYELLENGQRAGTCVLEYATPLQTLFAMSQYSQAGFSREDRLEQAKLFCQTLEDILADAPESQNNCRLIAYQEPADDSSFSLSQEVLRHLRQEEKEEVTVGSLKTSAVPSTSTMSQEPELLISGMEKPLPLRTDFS

SMILES | EC50 (class symbols) | EC50 (numeric bounds)
O=c1cc(-c2ccccc2)[nH]c(Nc2c[nH]c3cc(F)c(F)cc23)n1 [Compound 163, 2-[(5,6-difluoro-1H-indol-3-yl)amino]-6-phenyl-1H-pyrimidin-4-one] | 5 to 30 µM | –
O=c1cc[nH]c(Nc2c[nH]c3cc(F)c(F)cc23)n1 [Compound 164] | – | > 30 µM
O=c1nc(Nc2c[nH]c3cccnc23)ccn1-c1ccccc1 [Compound 168] | – | > 100 µM
c1ccc(-c2ccnc(Nc3c[nH]c4cccnc34)c2)cc1 [Compound 102, N-(4-phenylpyridin-2-yl)-1H-pyrrolo[3,2-b]pyridin-3-amine] | 5 to 30 µM | –
c1ccc2nc(Nc3c[nH]c4ccccc34)ncc2c1 [Compound 159] | 5 to 30 µM | –
c1ccc(-c2ccc(Nc3c[nH]c4cccnc34)nc2)cc1 [Compound 169] | 5 to 30 µM | –
O=c1cc(-c2ccccc2)[nH]c(Nc2c[nH]c3cccnc23)n1 [Compound 160] | 1 to 5 µM | –
Fc1cc2[nH]cc(Nc3ccc4cc(C(F)(F)F)ccc4n3)c2cc1F [Compound 161, N-(5,6-difluoro-1H-indol-3-yl)-6-(trifluoromethyl)quinolin-2-amine] | 1 to 5 µM | –

Continued, values first:

EC50 (class symbols) | EC50 (numeric bounds) | SMILES
0.2 to 1 µM | – | Fc1cnc2[nH]cc(Nc3ncc(-c4ccccc4)o3)c2c1 [Compound 101, N-[5-fluoro-1H-pyrrolo[2,3-b]pyridin-3-yl]-5-phenyl-1,3-oxazol-2-amine]
0.2 to 1 µM | – | Fc1cc2[nH]cc(Nc3ccc4ccc(C(F)(F)F)cc4n3)c2cc1F [Compound 162]
1 to 5 µM | – | c1ccc2nc(Nc3c[nH]c4ccccc34)ccc2c1 [Compound 167]
1 to 5 µM | – | c1ccc2sc(Nc3c[nH]c4ccccc34)nc2c1 [Compound 103]
1 to 5 µM | – | c1ccc2cc(Nc3c[nH]c4ccccc34)ncc2c1 [Compound 166]
1 to 5 µM | – | c1ccc(-c2ccnc(Nc3c[nH]c4ccccc34)n2)cc1 [Compound 158]
0.2 to 1 µM | – | c1ccc(-c2cnc(Nc3c[nH]c4ccccc34)s2)cc1 [Compound 165]
